The test system of one data set is mice. Briefly: Diuretic activity in mice. Type of data set: in vivo. As for the experimental part:
The three compounds CE 3598, CE 3624, CE 3649 can be shown to be diuretic at doses of from 1 - 50 mg/kg for the first.

Data set [1] in a line: Acute toxicity in mice (mortality after 24 h intravenous, 48 h per os). The note with it: mouse, in vivo; for LD50 at 24 h: intravenous, mortality after 24 hours; for LD50 at 48 h: po, per os, mortality after 48 hours. As for the experimental part:
The three compounds were administered in the usual way to lots of 10 male mice of average weight 20 gm. Mortality was assessed after 24 hours for the intravenous toxicity and after 48 hours for toxicity per os.

The subject of the next data set is dogs. Kind of data set: Tolerance in dogs, 5 days. It is filed as in vivo. Particulars: 50 to 200 mg/kg via the digestive tract, three dogs.
A further data set deals with non-anaesthetized dogs. Briefly: Diuretic activity in non-anaesthetized dogs after hydration. It is filed as in vivo. The protocol: After hydration with 500 ml physiological water and calculation of the diuresis for 2 hours, CE 3624, CE 3649 and CE 3598 were administered per os at doses of from 10 to 100 mg/kg.
For CE 3624 at 20 mg/kg, the diuresis was quintupled for 3 hours; the same result was obtained at 10 mg/kg. For CE 3649, at the same doses, the diuresis was only doubled. The doses of CE 3598 administered per os were 25,50 and 100 mg/kg. The increase in diuresis was effective during the first hour, and still notable 3 hours after administration of the product.

In data set [2] the test system is dogs anaesthetized with mebubarbital. Briefly: Diuretic activity in dogs anaesthetized with mebubarbital. Type of data set: in vivo. The protocol:
The doses injected were of the order of 5 - 30 mg/kg. In most cases, diuresis was decupled for more than 2 hours.
The size of the increase may reach 6 to 7 times, even 10 times, the base diuresis.
In the case of intraduodenal injection or administration per os, the active doses are relatively the same as by intravenous administration.

Where [3] appears, read: per os, 10 to 100 mg/kg, after hydration with 500 ml physiological water.

What is called LD50 is the dose expected to kill half of the subjects tested. Higher therefore signals lower toxicity.

For `O=C(O)COc1ccc(C(=O)c2ccco2)c(Cl)c1Cl` [CE 3598, 4-(2-furylketo) 2,3-dichloro phenoxyacetic acid], in the data set on mice, the diuretic activity result is “diuretic”. Besides, in data set [1], the LD50 at 24 h was found to be 450 mg/kg and the LD50 at 48 h is 1500 mg/kg. Also, the “symptoms indicating injurious activity” value with dogs is “no symptoms which would indicate any injurious activity”. For the same compound, in the data set with non-anaesthetized dogs (setting [3]), the increase in diuresis result is reported as “strongly increased”. Besides, in the data set on non-anaesthetized dogs (per os, 25, 50 and 100 mg/kg), the “increase in diuresis 3 hours after administration” value was “still notable” and the “increase in diuresis during the first hour” value is reported as “effective”. The “increase in diuresis 2 hours after injection” value in data set [2] (intravenous) is “still perceptible”. The “dose provoking substantial diuretic action” value in data set [2] (intravenous, first 15 minutes) is recorded as roughly 10 mg/kg. In addition, in data set [2] (intravenous, may reach even), the “size of the increase over base diuresis, maximum” value was determined as 10 times. For the same compound, the “diuretic action in the first 15 minutes” value in data set [2] (intravenous, of the order of 10 mg/kg) was “substantial diuretic action”.
With `O=C(O)COc1ccc(C(=O)c2cccs2)c(Cl)c1Cl` [CE 3624, 4-(2-thienylketo) 2,3-dichloro phenoxyacetic acid], the diuretic activity entry in the data set with mice is given as “diuretic”. Further, the increase in diuresis result is given as “doubled” in the data set on mice (25 mg/kg); “quintupled” with mice (50 mg/kg); “quintupled” in the data set on non-anaesthetized dogs (per os, 10 mg/kg); “quintupled” in the data set on non-anaesthetized dogs (per os, 20 mg/kg, for 3 hours); “strongly increased” in the data set with non-anaesthetized dogs (setting [3]); “decupled” in data set [2] (injected, of the order of 5 - 30 mg/kg, in most cases, for more than 2 hours). The compound further yielded an LD50 at 24 h in data set [1] of 225 mg/kg. Also, the 50% lethal dose (LD50) at 48 h in data set [1] was 1280 mg/kg. Moreover, the “symptoms indicating injurious activity” value in the data set on dogs was “no symptoms which would indicate any injurious activity”. Moreover, the “duration of quintupled diuresis” value with non-anaesthetized dogs (per os, 20 mg/kg) worked out at 3 h. Besides, in data set [2] (injected, of the order of 5 - 30 mg/kg), the diuretic action entry was “extremely substantial and precocious”. The “duration of decupled diuresis” value in data set [2] (injected, of the order of 5 - 30 mg/kg, in most cases) is on record as “more than 2 hours”.
In the case of `Cc1ccc(C(=O)c2ccc(OCC(=O)O)c(Cl)c2Cl)s1` [CE 3649, 4-[2(5-methylthienyl)keto] 2,3-dichloro phenoxyacetic acid], in the data set with mice, the diuretic activity entry is “diuretic” and the “diuretic activity relative to CE 3624” value is recorded as “a quarter of that of CE 3624”. In data set [1], this compound gave an LD50 at 24 h of 580 mg/kg and an LD50 at 48 h of 2900 mg/kg. Moreover, the “symptoms indicating injurious activity” value with dogs is listed as “no symptoms which would indicate any injurious activity”. The increase in diuresis result with non-anaesthetized dogs (setting [3]) was “strongly increased”. Besides, the increase in diuresis entry in the data set on non-anaesthetized dogs (per os, same doses as CE 3624 (20 and 10 mg/kg)) was “only doubled”.

The record behind these values is patent publication US3969529A, “Phenoxyacetic acid derivatives as diuretic agents” (C.E.R.P.H.A., priority 1969, dated 1976).
